From PubChem BioAssay AID1963832 (Molecular Pharmacology Branch, DTP, NCI, 2024)

Tested on: 885724-159-R-J1-PDC complex spheroid viability
Test: Anticancer human tumor 885724-159-R-J1-PDC patient-derived pancreatic adenocarcinoma cell line growth inhibition [POLQ]
Conditions: for IC50: curve of first compound; for viability, T/C: stronger effect = lower value
How it was run: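 PDC + HUVEC + MSC complex spheroids; POLQ inhibitors ± partner drugs; top conc. at/near clinical Cmax, else 10 microM (SN-38 1 microM), half-log dilutions; 37 degrees C, 5% CO2.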

[1] = second compound 0.0316 µM, first compound 0.0316 µM
[2] = second compound 0.0316 µM, first compound 0.1 µM
[3] = second compound 0.0316 µM, first compound 0.316 µM
[4] = second compound 0.0316 µM, first compound 1 µM
[5] = second compound 0.0316 µM, first compound 3.16 µM
[6] = second compound 0.0316 µM, first compound 10 µM
[7] = second compound 0.1 µM, first compound 0.0316 µM
[8] = second compound 0.1 µM, first compound 0.1 µM
[9] = second compound 0.1 µM, first compound 0.316 µM
[10] = second compound 0.1 µM, first compound 1 µM
[11] = second compound 0.1 µM, first compound 3.16 µM
[12] = second compound 0.1 µM, first compound 10 µM
[13] = second compound 0.316 µM, first compound 0.0316 µM
[14] = second compound 0.316 µM, first compound 0.1 µM
[15] = second compound 0.316 µM, first compound 0.316 µM
[16] = second compound 0.316 µM, first compound 1 µM
[17] = second compound 0.316 µM, first compound 3.16 µM
[18] = second compound 0.316 µM, first compound 10 µM
[19] = second compound 1 µM, first compound 0.0316 µM
[20] = second compound 1 µM, first compound 0.1 µM
[21] = second compound 1 µM, first compound 0.316 µM
[22] = second compound 1 µM, first compound 1 µM
[23] = second compound 1 µM, first compound 3.16 µM
[24] = second compound 1 µM, first compound 10 µM
[25] = second compound 3.16 µM, first compound 0.0316 µM
[26] = second compound 3.16 µM, first compound 0.1 µM
[27] = second compound 3.16 µM, first compound 0.316 µM
[28] = second compound 3.16 µM, first compound 1 µM
[29] = second compound 3.16 µM, first compound 3.16 µM
[30] = second compound 3.16 µM, first compound 10 µM
[31] = second compound 10 µM, first compound 0.0316 µM
[32] = second compound 10 µM, first compound 0.1 µM
[33] = second compound 10 µM, first compound 0.316 µM
[34] = second compound 10 µM, first compound 1 µM
[35] = second compound 10 µM, first compound 3.16 µM
[36] = second compound 10 µM, first compound 10 µM
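Note: spheroids exposed to compounds for 7 days.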

## C#Cc1c(F)ccc2cc(O)cc(-c3ncc4c(N5CC6CCC(C5)N6)nc(OCC56CCCN5CC(F)C6)nc4c3F)c12 (stereo not drawn) + COC1C(OC(N)=O)C(O)C(Oc2ccc3c(O)c(NC(=O)c4ccc(O)c(CC=C(C)C)c4)c(=O)oc3c2C)OC1(C)C
Second compound 0.0316 µM
  IC50: 2750 nM
Second compound 0.1 µM
  IC50: 2490 nM
Second compound 0.316 µM
  IC50: 2380 nM
Second compound 1 µM
  IC50: 2670 nM
Second compound 3.16 µM
  IC50: 2580 nM
Second compound 10 µM
  IC50: 2970 nM
[1]
  viability, T/C: 104%
[2]
  viability, T/C: 101%
[3]
  viability, T/C: 88.5%
[4]
  viability, T/C: 76.8%
[5]
  viability, T/C: 45.2%
[6]
  viability, T/C: 21.7%
[7]
  viability, T/C: 104%
[8]
  viability, T/C: 94.3%
[9]
  viability, T/C: 93%
[10]
  viability, T/C: 72.1%
[11]
  viability, T/C: 44%
[12]
  viability, T/C: 21.7%
[13]
  viability, T/C: 95.7%
[14]
  viability, T/C: 107%
[15]
  viability, T/C: 88.7%
[16]
  viability, T/C: 76.6%
[17]
  viability, T/C: 40.9%
[18]
  viability, T/C: 22.6%
[19]
  viability, T/C: 97.9%
[20]
  viability, T/C: 100%
[21]
  viability, T/C: 90%
[22]
  viability, T/C: 76.5%
[23]
  viability, T/C: 45.2%
[24]
  viability, T/C: 20.8%
[25]
  viability, T/C: 94.9%
[26]
  viability, T/C: 97.2%
[27]
  viability, T/C: 90.3%
[28]
  viability, T/C: 67.2%
[29]
  viability, T/C: 47.8%
[30]
  viability, T/C: 22.3%
[31]
  viability, T/C: 99.4%
[32]
  viability, T/C: 92.6%
[33]
  viability, T/C: 95.2%
[34]
  viability, T/C: 73.9%
[35]
  viability, T/C: 49.4%
[36]
  viability, T/C: 21.9%

## CCc1cc2c(N3CCc4c(cc(Cn5ccnc5)cc4-c4cn(C)nc4C(F)(F)F)C3=O)cc(C)nc2c(OC)n1 + COC1C(OC(N)=O)C(O)C(Oc2ccc3c(O)c(NC(=O)c4ccc(O)c(CC=C(C)C)c4)c(=O)oc3c2C)OC1(C)C
Second compound 0.0316 µM
  IC50: > 10000 nM
Second compound 0.1 µM
  IC50: > 10000 nM
Second compound 0.316 µM
  IC50: > 10000 nM
Second compound 1 µM
  IC50: > 10000 nM
Second compound 3.16 µM
  IC50: > 10000 nM
Second compound 10 µM
  IC50: > 10000 nM
[1]
  viability, T/C: 87.4%
[2]
  viability, T/C: 79.7%
[3]
  viability, T/C: 75.3%
[4]
  viability, T/C: 68.9%
[5]
  viability, T/C: 84.7%
[6]
  viability, T/C: 66.2%
[7]
  viability, T/C: 89%
[8]
  viability, T/C: 78.6%
[9]
  viability, T/C: 77%
[10]
  viability, T/C: 77.1%
[11]
  viability, T/C: 69.7%
[12]
  viability, T/C: 70.4%
[13]
  viability, T/C: 88.7%
[14]
  viability, T/C: 71.8%
[15]
  viability, T/C: 90.4%
[16]
  viability, T/C: 75.4%
[17]
  viability, T/C: 79.2%
[18]
  viability, T/C: 67.6%
[19]
  viability, T/C: 80%
[20]
  viability, T/C: 73.5%
[21]
  viability, T/C: 79.9%
[22]
  viability, T/C: 82.5%
[23]
  viability, T/C: 74.5%
[24]
  viability, T/C: 71.9%
[25]
  viability, T/C: 80.3%
[26]
  viability, T/C: 72.9%
[27]
  viability, T/C: 82.6%
[28]
  viability, T/C: 76.7%
[29]
  viability, T/C: 80.1%
[30]
  viability, T/C: 75.2%
[31]
  viability, T/C: 78.4%
[32]
  viability, T/C: 80.9%
[33]
  viability, T/C: 77.2%
[34]
  viability, T/C: 75.1%
[35]
  viability, T/C: 75.9%
[36]
  viability, T/C: 72%

## COc1cc2cc(C(=O)CCC(=O)O)sc2cc1OC + COC1C(OC(N)=O)C(O)C(Oc2ccc3c(O)c(NC(=O)c4ccc(O)c(CC=C(C)C)c4)c(=O)oc3c2C)OC1(C)C
Second compound 0.0316 µM
  IC50: > 10000 nM
Second compound 0.1 µM
  IC50: > 10000 nM
Second compound 0.316 µM
  IC50: > 10000 nM
Second compound 1 µM
  IC50: > 10000 nM
Second compound 3.16 µM
  IC50: > 10000 nM
Second compound 10 µM
  IC50: > 10000 nM
[1]
  viability, T/C: 96.4%
[2]
  viability, T/C: 97.6%
[3]
  viability, T/C: 100%
[4]
  viability, T/C: 93.6%
[5]
  viability, T/C: 96.8%
[6]
  viability, T/C: 86.2%
[7]
  viability, T/C: 100%
[8]
  viability, T/C: 96.3%
[9]
  viability, T/C: 102%
[10]
  viability, T/C: 109%
[11]
  viability, T/C: 109%
[12]
  viability, T/C: 86.6%
[13]
  viability, T/C: 101%
[14]
  viability, T/C: 101%
[15]
  viability, T/C: 97.2%
[16]
  viability, T/C: 103%
[17]
  viability, T/C: 113%
[18]
  viability, T/C: 81%
[19]
  viability, T/C: 109%
[20]
  viability, T/C: 92.5%
[21]
  viability, T/C: 95.6%
[22]
  viability, T/C: 96%
[23]
  viability, T/C: 104%
[24]
  viability, T/C: 76.2%
[25]
  viability, T/C: 100%
[26]
  viability, T/C: 96.6%
[27]
  viability, T/C: 95.9%
[28]
  viability, T/C: 101%
[29]
  viability, T/C: 113%
[30]
  viability, T/C: 79.8%
[31]
  viability, T/C: 96.8%
[32]
  viability, T/C: 105%
[33]
  viability, T/C: 111%
[34]
  viability, T/C: 93.4%
[35]
  viability, T/C: 87.5%
[36]
  viability, T/C: 83.4%

## COc1cccc2c1C(=O)c1c(O)c3c(c(O)c1C2=O)CC(O)(C(=O)CO)CC3OC1CC(N)C(O)C(C)O1 (stereo not drawn) + Cc1cccc(N(C)C(=O)C2C(O)CCN2c2nc(C)cc(C(F)(F)F)c2C#N)c1
Second compound 0.0316 µM
  IC50: 142 nM
Second compound 0.1 µM
  IC50: 140 nM
Second compound 0.316 µM
  IC50: 139 nM
Second compound 1 µM
  IC50: 112 nM
Second compound 3.16 µM
  IC50: 117 nM
Second compound 10 µM
  IC50: 124 nM
[1]
  viability, T/C: 72.8%
[2]
  viability, T/C: 57.1%
[3]
  viability, T/C: 32.5%
[4]
  viability, T/C: 11.3%
[5]
  viability, T/C: 5.41%
[6]
  viability, T/C: 6.51%
[7]
  viability, T/C: 67.6%
[8]
  viability, T/C: 55.5%
[9]
  viability, T/C: 34.5%
[10]
  viability, T/C: 11.9%
[11]
  viability, T/C: 5.56%
[12]
  viability, T/C: 8.59%
[13]
  viability, T/C: 80.8%
[14]
  viability, T/C: 57.1%
[15]
  viability, T/C: 31%
[16]
  viability, T/C: 8.3%
[17]
  viability, T/C: 5.71%
[18]
  viability, T/C: 9.04%
[19]
  viability, T/C: 75.3%
[20]
  viability, T/C: 51%
[21]
  viability, T/C: 30.4%
[22]
  viability, T/C: 10.5%
[23]
  viability, T/C: 5.49%
[24]
  viability, T/C: 6.59%
[25]
  viability, T/C: 75.5%
[26]
  viability, T/C: 51.7%
[27]
  viability, T/C: 30.3%
[28]
  viability, T/C: 5.5%
[29]
  viability, T/C: 6.53%
[30]
  viability, T/C: 6.91%
[31]
  viability, T/C: 72.7%
[32]
  viability, T/C: 55.6%
[33]
  viability, T/C: 22.9%
[34]
  viability, T/C: 2.58%
[35]
  viability, T/C: 4.96%
[36]
  viability, T/C: 6.82%
